Test results: ChEMBL document CHEMBL2062441, “An Orally Available 3-Ethoxybenzisoxazole Capsid Binder with Clinical Activity against Human Rhinovirus” (ACS Med Chem Lett, 2012)
In brackets after ≈: the same amount, converted by molar mass.

Assays:
[1] = test system: Human rhinovirus sp.; test: Antirhinoviral activity against Human rhinovirus 14 infected in human HeLa cells assessed as inhibition of virus-induced cytopathic effect after 5 days by MTT assay; assay type: functional, organism-based; settings: Human rhinovirus sp., 14, HeLa, 120 h
[2] = test system: rhinovirus A2; test: Antirhinoviral activity against Human rhinovirus 2 infected in human HeLa cells assessed as inhibition of virus-induced cytopathic effect after 5 days by MTT assay; assay type: functional, organism-based; settings: Rhinovirus A, 120 h
[3] = test system: Human rhinovirus sp.; test: Antirhinoviral activity against major receptor-resistant Human rhinovirus infected in human HeLa cells assessed as inhibition of virus-induced cytopathic effect after 5 days by MTT assay; assay type: functional, organism-based; settings: 120 h
[4] = test system: Human rhinovirus sp.; test: Ratio of EC50 for major receptor-resistant Human rhinovirus B to EC50 for minor receptor-resistant Human rhinovirus A; assay type: functional
[5] = test system: Human rhinovirus sp.; test: Antirhinoviral activity against Human rhinovirus A infected in human HeLa cells assessed as inhibition of virus-induced cytopathic effect after 5 days by MTT assay; assay type: functional, organism-based; settings: 120 h
[6] = test system: Human rhinovirus sp.; test: Antirhinoviral activity against minor receptor-resistant Human rhinovirus infected in human HeLa cells assessed as inhibition of virus-induced cytopathic effect after 5 days by MTT assay; assay type: functional, organism-based; settings: 120 h
[7] = test system: Human rhinovirus sp.; test: Ratio of EC50 for Human rhinovirus B to EC50 for Human rhinovirus A; assay type: functional
[8] = test system: Human rhinovirus sp.; test: Antirhinoviral activity against Human rhinovirus B infected in human HeLa cells assessed as inhibition of virus-induced cytopathic effect after 5 days by MTT assay; assay type: functional, organism-based; settings: 120 h
[9] = test system: Human rhinovirus sp.; test: Ratio of EC50 for antiviral-resistant Human rhinovirus B to EC50 for antiviral-resistant Human rhinovirus A; assay type: functional
[10] = test system: Human rhinovirus sp.; test: Antirhinoviral activity against antiviral-resistant Human rhinovirus B infected in human HeLa cells assessed as inhibition of virus-induced cytopathic effect after 5 days by MTT assay; assay type: functional, organism-based; settings: 120 h
[11] = test system: Human rhinovirus sp.; test: Antirhinoviral activity against antiviral-resistant Human rhinovirus A infected in human HeLa cells assessed as inhibition of virus-induced cytopathic effect after 5 days by MTT assay; assay type: functional, organism-based; settings: 120 h
[12] = Cmax in human at 400 mg administered as single dose; settings: in vivo
[13] = in vivo; settings: male, beagle, dog, plasma, po, 50 mg/kg
Description: AUC in male beagle dog at 50 mg/kg, po

[14] = in vivo; settings: female, Lister hooded, rat, po, 50 mg/kg
Description: Oral bioavailability in female lister hooded rat at 50 mg/kg administered as single dose

[15] = in vivo; settings: female, beagle, dog, po, 50 mg/kg
Description: Tmax in female beagle dog at 50 mg/kg, po

[16] = in vivo; settings: female, Lister hooded, rat, po, 50 mg/kg; remark: listed apart in the source
Description: Tmax in female lister hooded rat at 50 mg/kg, po

[17] = Half life in female lister hooded rat at 50 mg/kg, po; settings: in vivo
[18] = in vivo; settings: female, beagle, dog, plasma, po, 50 mg/kg
Description: AUC in female beagle dog at 50 mg/kg, po

[19] = in vivo; settings: male, Lister hooded, rat, po, 50 mg/kg
Description: Tmax in male lister hooded rat at 50 mg/kg, po

[20] = in vivo; settings: male, Lister hooded, rat, po, 50 mg/kg; remark: listed apart in the source
Description: Cmax in male lister hooded rat at 50 mg/kg, po

[21] = Half life in human at 400 mg administered as single dose; settings: in vivo
[22] = AUC (0 to infinity) in human at 400 mg administered as single dose; settings: plasma
[23] = Half life in female beagle dog at 50 mg/kg, po; settings: in vivo
[24] = Half life in male lister hooded rat at 50 mg/kg, po; settings: in vivo
[25] = in vivo; settings: female, Lister hooded, rat, plasma, po, 50 mg/kg
Description: AUC in female lister hooded rat at 50 mg/kg, po

[26] = in vivo; settings: female, Lister hooded, rat, po, 50 mg/kg; remark: listed apart in the source
Description: Cmax in female lister hooded rat at 50 mg/kg, po

[27] = Tmax in human at 400 mg administered as single dose; settings: in vivo
[28] = in vivo; settings: male, beagle, dog, po, 50 mg/kg
Description: Tmax in male beagle dog at 50 mg/kg, po

[29] = in vivo; settings: male, beagle, dog, po, 50 mg/kg; remark: listed apart in the source
Description: Cmax in male beagle dog at 50 mg/kg, po

[30] = in vivo; settings: male, Lister hooded, rat, plasma, po, 50 mg/kg
Description: AUC in male lister hooded rat at 50 mg/kg, po

[31] = in vivo; settings: female, beagle, dog, po, 50 mg/kg; remark: listed apart in the source
Description: Cmax in female beagle dog at 50 mg/kg, po

[32] = Half life in male beagle dog at 50 mg/kg, po; settings: in vivo
[33] = in vivo; settings: male, Lister hooded, rat, po, 50 mg/kg; remark: listed apart in the source
Description: Oral bioavailability in male lister hooded rat at 50 mg/kg administered as single dose

CCc1noc2cc(OCCC3CCN(c4ccc(C)nn4)CC3)ccc12
EC50 [1]: 88 ng/mL (≈ 0.24 µM) | EC50 [2]: 24 ng/mL (≈ 0.0655 µM)

CCOc1noc2cc(OCCC3CCN(c4ccc(Cl)nn4)CC3)ccc12
EC50 [1]: 19 ng/mL (≈ 0.0472 µM) | EC50 [2]: 3 ng/mL (≈ 0.00745 µM)

CCCOc1noc2cc(OCCC3CCN(c4ccc(C)nn4)CC3)ccc12
EC50 [1]: 29 ng/mL (≈ 0.0731 µM) | EC50 [2]: 3 ng/mL (≈ 0.00757 µM)

CCCc1noc2cc(OCCC3CCN(c4ccc(C)nn4)CC3)ccc12
EC50 [1]: 13 ng/mL (≈ 0.0342 µM) | EC50 [2]: 84 ng/mL (≈ 0.221 µM)

CCOc1nsc2cc(OCCC3CCN(c4ccc(C)nn4)CC3)ccc12
EC50 [1]: 29 ng/mL (≈ 0.0728 µM) | EC50 [2]: 3 ng/mL (≈ 0.00753 µM)

CCOc1noc2cc(OCCCC3CCN(c4ccc(Cl)nn4)CC3)ccc12
EC50 [1]: 9 ng/mL (≈ 0.0216 µM) | EC50 [2]: 3 ng/mL (≈ 0.0072 µM)

CCOC(=O)c1ccc(OCCC2CCN(c3ccc(C)nn3)CC2)cc1 [PIRODAVIR]
EC50 [3]: 5.6 ng/mL (≈ 0.0152 µM) | Ratio EC50 [4]: 2.4 | EC50 [5]: 4 ng/mL (≈ 0.0108 µM) | EC50 [6]: 2.3 ng/mL (≈ 0.00623 µM) | EC50 [1]: 4 ng/mL (≈ 0.0108 µM) | Ratio EC50 [7]: 2.8 | EC50 [8]: 11.1 ng/mL (≈ 0.03 µM) | Ratio EC50 [9]: 8.1 | EC50 [2]: 3 ng/mL (≈ 0.00812 µM) | EC50 [10]: 2.6 ng/mL (≈ 0.00704 µM) | EC50 [11]: 20.6 ng/mL (≈ 0.0558 µM)

Cc1cc(CCCOc2c(C)cc(-c3noc(C(F)(F)F)n3)cc2C)on1 [PLECONARIL]
EC50 [3]: 49.2 ng/mL (≈ 0.129 µM) | Ratio EC50 [4]: 2.1 | EC50 [5]: 37.4 ng/mL (≈ 0.0981 µM) | EC50 [6]: 23.2 ng/mL (≈ 0.0608 µM) | Ratio EC50 [7]: 6 | EC50 [8]: 224 ng/mL (≈ 0.588 µM) | Ratio EC50 [9]: 11.5 | EC50 [10]: 33.8 ng/mL (≈ 0.0886 µM) | EC50 [11]: 388 ng/mL (≈ 1.02 µM)

CCOC(=O)/C=C/[C@H](C[C@@H]1CCNC1=O)NC(=O)[C@@H](CC(=O)[C@@H](NC(=O)c1cc(C)on1)C(C)C)Cc1ccc(F)cc1 [RUPINTRIVIR]
EC50 [3]: 1.5 ng/mL (≈ 0.00251 µM) | Ratio EC50 [4]: 2 | EC50 [5]: 2 ng/mL (≈ 0.00334 µM) | EC50 [6]: 3 ng/mL (≈ 0.00501 µM) | Ratio EC50 [7]: 1.7 | EC50 [8]: 1.2 ng/mL (≈ 0.002 µM) | Ratio EC50 [9]: 1.7 | EC50 [10]: 2 ng/mL (≈ 0.00334 µM) | EC50 [11]: 1.2 ng/mL (≈ 0.002 µM)

CCOc1noc2cc(OCCC3CCN(c4ccc(C)nn4)CC3)ccc12 [VAPENDAVIR]
Cmax [12]: 1890 ng/mL | AUC [13]: 202 µg·h/mL | bioavailability [14]: 95% | Tmax [15]: 7.7 h | Tmax [16]: 11.2 h | half-life [17]: 46.4 h | AUC [18]: 121 µg·h/mL | Tmax [19]: 16 h | Cmax [20]: 22500 ng/mL | half-life [21]: 11.8 h | AUC(0-inf) [22]: 13.8 µg·h/mL | EC50 [2]: 1 ng/mL (≈ 0.00261 µM) | half-life [23]: 15.9 h | half-life [24]: 51.6 h | AUC [25]: 489 µg·h/mL | Cmax [26]: 17700 ng/mL | Tmax [27]: 1.03 h | Tmax [28]: 14.7 h | Cmax [29]: 11000 ng/mL | AUC [30]: 483 µg·h/mL | Cmax [31]: 6100 ng/mL | half-life [32]: 18.3 h | bioavailability [33]: 94%
